Assay results: patent publication US20250041429A1, “COMPOUND HAVING BTK PROTEIN DEGRADATION ACTIVITY, AND MEDICAL USES THEREOF” (UBIX THERAPEUTICS, INC., priority 2021, published 2025)

Biological target: T1, BTK protein (Homo sapiens, UniProt Q06187)
T1 construct: endogenous in cells; host or cells: TMD-8 cells
Experiment: Measurement of BTK protein degradation ability in TMD-8 cells (Western blotting)
Assay type: cell-based
Conditions: harvested after 24 hours; for BTK degradation (%) 1 nM: compound 1 nM; for BTK degradation (%) 10 nM: compound 10 nM; for BTK degradation (%) 100 nM: compound 100 nM
Method in brief: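 TMD-8 cells (1×10^6/mL) were treated for 24 h with compound at 0.1, 1, 10 μM or 0.0001–0.1 μM, with DMSO as vehicle control. RIPA lysates were normalized by BCA assay. BTK was detected by Western blot with anti-BTK, using GAPDH or β-actin as loading controls, and imaged on LI-COR Odyssey.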

T1 sequence (Q06187 whole entry): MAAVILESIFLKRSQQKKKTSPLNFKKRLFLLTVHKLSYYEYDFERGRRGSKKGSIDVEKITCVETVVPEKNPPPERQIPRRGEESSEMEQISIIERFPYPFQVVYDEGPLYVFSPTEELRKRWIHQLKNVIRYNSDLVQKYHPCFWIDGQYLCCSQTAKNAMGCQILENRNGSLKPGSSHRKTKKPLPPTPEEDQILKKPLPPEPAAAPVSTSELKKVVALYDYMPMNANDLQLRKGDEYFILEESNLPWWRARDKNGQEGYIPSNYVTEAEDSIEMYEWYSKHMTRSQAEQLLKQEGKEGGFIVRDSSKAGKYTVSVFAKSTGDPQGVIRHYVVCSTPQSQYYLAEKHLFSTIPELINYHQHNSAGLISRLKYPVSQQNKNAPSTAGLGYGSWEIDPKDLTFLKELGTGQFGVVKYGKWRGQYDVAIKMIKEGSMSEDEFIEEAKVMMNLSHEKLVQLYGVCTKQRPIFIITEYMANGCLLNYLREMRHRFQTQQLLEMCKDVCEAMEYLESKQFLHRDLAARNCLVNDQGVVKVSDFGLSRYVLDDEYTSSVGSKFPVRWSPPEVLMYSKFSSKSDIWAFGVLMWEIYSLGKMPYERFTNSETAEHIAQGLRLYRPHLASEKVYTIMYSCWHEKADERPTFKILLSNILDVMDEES

Compound	BTK degradation (%) 1 nM [%]	BTK degradation (%) 10 nM [%]	BTK degradation (%) 100 nM [%]
Cc1cc(-c2ccnc(Nc3ccc(C4CCN(CC5CCN(c6ccc(OC7CCC(=O)NC7=O)cn6)CC5)CC4)cc3)n2)ccc1CNC(=O)N1CC(OC(C)C)C1 (centres unmarked) [Example 51, N-(4-(2-((4-(1-((1-(5-((2,6-dioxopiperidin-3-yl)oxy)pyridin-2-yl)piperidin-4-yl)methyl)piperidin-4-yl)phenyl)amino)pyrimidin-4-yl)-2-methylbenzyl)-3-isopropoxyazetidine-1-carboxamide]	24.0	86.7	99.3
Cc1cc(-c2ccnc(Nc3ccc(N4CCC(CN5CCN(C(=O)c6cccc(NC7CCC(=O)NC7=O)c6)CC5)CC4)cc3)n2)ccc1CNC(=O)N1CC(OC(C)C)C1 (centres unmarked) [Example 114, N-(4-(2-((4-(4-((4-(3-((2,6-dioxopiperidin-3-yl)amino)benzoyl)piperazin-1-yl)methyl)piperidin-1-yl)phenyl)amino)pyrimidin-4-yl)-2-methylbenzyl)-3-isopropoxyazetidine-1-carboxamide]	59.0	99.5	99.5
Cc1cc(-c2ccnc(Nc3ccc(N4CCC(CN5CCC(c6ccc(OC7CCC(=O)NC7=O)cc6)CC5)CC4)nc3)n2)ccc1CNC(=O)N1CC(OC(C)C)C1 (centres unmarked) [Example 144, N-(4-(2-((6-(4-((4-(4-((2,6-dioxopiperidin-3-yl)oxy)phenyl)piperidin-1-yl)methyl)piperidin-1-yl)pyridin-3-yl)amino)pyrimidin-4-yl)-2-methylbenzyl)-3-isopropoxyazetidine-1-carboxamide]	28.0	77.0	98.5
CC(C)(C)n1cc(C(=O)NCc2ccc(-c3ccnc(Nc4ccc(N5CCC(CN6CCC(c7ccc(NC8CCC(=O)NC8=O)cc7)CC6)CC5)cc4)n3)cc2CO)nn1 (centres unmarked) [Example 143, 1-(tert-butyl)-N-(4-(2-((4-(4-((4-(4-((2,6-dioxopiperidin-3-yl)amino)phenyl)piperidin-1-yl)methyl)piperidin-1-yl)phenyl)amino)pyrimidin-4-yl)-2-(hydroxymethyl)benzyl)-1H-1,2,3-triazole-4-carbamide]	74.0	99.5	100.0
Cc1cc(-c2ccnc(Nc3ccc(N4CCN(CC5CN(C(=O)c6cccc(NC7CCC(=O)NC7=O)c6)C5)CC4)cc3)n2)ccc1CNC(=O)N1CC(OC(C)C)C1 (centres unmarked) [Example 88, N-(4-(2-((4-(4-((1-(3-((2,6-dioxopiperidin-3-yl)amino)benzoyl)azetidin-3-yl)methyl)piperazin-1-yl)phenyl)amino)pyrimidin-4-yl)-2-methylbenzyl)-3-isopropoxyazetidine-1-carboxamide]	35.5	94.5	98.5

Next, values leading:

BTK degradation (%) 1 nM [%]	BTK degradation (%) 10 nM [%]	BTK degradation (%) 100 nM [%]	Compound
58.0	96.5	99.5	Cc1cc(-c2ccnc(Nc3ccc(N4CCN(CC5CCN(c6ccc(NC7CCC(=O)NC7=O)cn6)CC5)CC4)cc3)n2)ccc1CNC(=O)c1cnn(C(C)(C)C)c1 (centres unmarked) [Example 60, 1-(tert-butyl)-N-(4-(2-((4-(4-((1-(5-((2,6-dioxopiperidin-3-yl)amino)pyridin-2-yl)piperidin-4-yl)methyl)piperazin-1-yl)phenyl)amino)pyrimidin-4-yl)-2-methylbenzyl)-1H-pyrazole-4-carboxamide]
61.5	94.5	98.5	Cc1cc(-c2ccnc(Nc3ccc(N4CCN(CC5CN(c6ccc7c(c6)C(=O)N(C6CCC(=O)NC6=O)C7=O)C5)CC4)cc3)n2)ccc1CNC(=O)c1cnn(C(C)(C)C)c1 (centres unmarked) [Example 31, 1-(tert-butyl)-N-(4-(2-((4-(4-((1-(2-(2,6-dioxopiperidin-3-yl)-1,3-dioxoisoindolin-5-yl)azetidin-3-yl)methyl)piperazin-1-yl)phenyl)amino)pyrimidin-4-yl)-2-methylbenzyl)-1H-pyrazole-4-carboxamide]
69.5	95.5	98	Cc1cc(-c2ccnc(Nc3cnn(C4CCN(CC5CN(c6ccc7c(c6)C(=O)N(C6CCC(=O)NC6=O)C7=O)C5)CC4)c3)n2)ccc1CNC(=O)c1cn(C(C)(C)C)nn1 (centres unmarked) [Example 40, 1-(tert-butyl)-N-(4-(2-((1-(1-((1-(2-(2,6-dioxopiperidin-3-yl)-1,3-dioxoisoindolin-5-yl)azetidin-3-yl)methyl)piperidin-4-yl)-1H-pyrazol-4-yl)amino)pyrimidin-4-yl)-2-methylbenzyl)-1H-1,2,3-triazole-4-carboxamide]
–	8.5	24	Cc1c(NC(=O)c2cn(C(C)(C)C)nn2)cc(F)cc1-c1ccnc(Nc2ccc(N3CCN(CC4CCN(c5ccc6c(c5)C(=O)N(C5CCC(=O)NC5=O)C6=O)CC4)CC3)cc2)n1 (centres unmarked) [Example 25, 1-(tert-butyl)-N-(3-(2-((4-(4-((1-(2-(2,6-dioxopiperidin-3-yl)-1,3-dioxoisoindolin-5-yl)piperidin-4-yl)methyl)piperazin-1-yl)phenyl)amino)pyrimidin-4-yl)-5-fluoro-2-methylphenyl)-1H-1,2,3-triazole-4-carboxamide]
66.5	95.5	99.0	Cc1cc(-c2ccnc(Nc3ccc(N4CCN(CC5CCN(c6cccc(NC7CCC(=O)NC7=O)c6)CC5)CC4)cc3)n2)ccc1CNC(=O)c1cn(C(C)(C)C)nn1 (centres unmarked) [Example 61, 1-(tert-butyl)-N-(4-(2-((4-(4-((1-(3-((2,6-dioxopiperidin-3-yl)amino)phenyl)piperidin-4-yl)methyl)piperazin-1-yl)phenyl)amino)pyrimidin-4-yl)-2-methylbenzyl)-1H-1,2,3-triazole-4-carboxamide]
75	97	99	Cc1cc(-c2ccnc(Nc3cnn(C4CCN(CC5CN(c6ccc7c(c6)C(=O)N(C6CCC(=O)NC6=O)C7=O)C5)CC4)c3)n2)ccc1CNC(=O)N1CC(OC(C)C)C1 (centres unmarked) [Example 22, N-(4-(2-((1-(1-((1-(2-(2,6-dioxopiperidin-3-yl)-1,3-dioxoisoindolin-5-yl)azetidin-3-yl)methyl)piperidin-4-yl)-1H-pyrazol-4-yl)amino)pyrimidin-4-yl)-2-methylbenzyl)-3-isopropoxyazetidine-1-carboxamide]
71.0	95.5	98.5	Cc1cc(-c2ccnc(Nc3ccc(N4CCN(CC5CN(C(=O)c6cccc(NC7CCC(=O)NC7=O)c6)C5)CC4)cc3)n2)ccc1CNC(=O)c1cn(C(C)(C)C)nn1 (centres unmarked) [Example 98, 1-(tert-butyl)-N-(4-(2-((4-(4-((1-(3-((2,6-dioxopiperidin-3-yl)amino)benzoyl)azetidin-3-yl)methyl)piperazin-1-yl)phenyl)amino)pyrimidin-4-yl)-2-methylbenzyl)-1H-1,2,3-triazole-4-carboxamide]
